13 cell lines from the supplement of paper PMC10307832 can be followed below.

Compound in one experiment: Cc1nc(C(=O)NCC(=O)O)c(O)c2ccc(Oc3ccccc3)cc12 [FG-4592]
As to the kind of experiment: relative viability (nuclei count vs DMSO), 5 days (fraction); higher = more cells survive. An outline of the steps:
(§1)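 Nuclei counted with MetaXpress define viability as the ratio of treated to vehicle wells, given as a median across plates. The lung cancer cell lines were in 1536-well plates, pinned with five √10-spaced library-drug doses and imaged at 4× after 5 days and Hoechst staining. Plates passed with control CV below 25% and at least one doubling.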

Compound in another experiment: CC1=CC(=C(N1C2=CC=C(C=C2)Cl)C)C(=O)CN3CCCCC3 [IU1-47]
Described as above. An outline of the steps: as §1

Consider 201T, for which the relative viability with FG-4592 (0.08 µM) amounted to 0.941; with FG-4592 (0.253 µM), 0.955; with FG-4592 (0.8 µM), 0.974; with FG-4592 (2.53 µM), 1; in the experiment with FG-4592 (8 µM) it was 0.982; with IU1-47 (0.08 µM) it was 0.961. The relative viability with IU1-47 (0.253 µM) was found to be 0.99; with IU1-47 (0.8 µM) it was 1.07; with IU1-47 (2.53 µM) it was 0.53; in the experiment with IU1-47 (8 µM) it was 0.941.

In the case of A549, the relative viability turned out to be 0.979 in the experiment with FG-4592 (0.08 µM); 0.86 with FG-4592 (0.253 µM); 0.974 with FG-4592 (0.8 µM); 1.02 with FG-4592 (2.53 µM); 0.911 in the experiment with FG-4592 (8 µM); 1.06 with IU1-47 (0.08 µM). Further, the relative viability with IU1-47 (0.253 µM) amounted to 1.07; with IU1-47 (0.8 µM), 0.978; in the experiment with IU1-47 (2.53 µM), 0.937; with IU1-47 (8 µM), 1.01.

For A-427, the relative viability with FG-4592 (0.08 µM) came to 0.923; in the experiment with FG-4592 (0.253 µM) it was 0.916; with FG-4592 (0.8 µM), 0.797; in the experiment with FG-4592 (2.53 µM) it was 0.866; with FG-4592 (8 µM) it was 0.897; with IU1-47 (0.08 µM), 1.03. The relative viability in the experiment with IU1-47 (0.253 µM) was 1.04; in the experiment with IU1-47 (0.8 µM), 1.12; with IU1-47 (2.53 µM) it was 0.549; with IU1-47 (8 µM), 0.956.

Take ABC-1: the relative viability with FG-4592 (0.08 µM) stood at 0.814; with FG-4592 (0.253 µM) it was 0.824; with FG-4592 (0.8 µM) it was 0.924; with FG-4592 (2.53 µM) it was 0.949; with FG-4592 (8 µM) it was 0.77; with IU1-47 (0.08 µM) it was 1.03. Besides, the relative viability with IU1-47 (0.253 µM) is 1.01; with IU1-47 (0.8 µM) it was 0.888; in the experiment with IU1-47 (8 µM) it was 0.876.

As for BEN, the relative viability with FG-4592 (0.08 µM) stood at 0.787; in the experiment with FG-4592 (0.253 µM), 0.734; with FG-4592 (0.8 µM) it was 0.822; in the experiment with FG-4592 (2.53 µM), 1.03; with FG-4592 (8 µM), 0.733; in the experiment with IU1-47 (0.08 µM), 1.02. Further, the relative viability with IU1-47 (0.253 µM) amounted to 1.01; with IU1-47 (0.8 µM) it was 1.12; in the experiment with IU1-47 (2.53 µM), 0.781; with IU1-47 (8 µM), 0.971.

On to CAL-12T, for which the relative viability with FG-4592 (0.08 µM) came to 0.973; in the experiment with FG-4592 (0.253 µM) it was 0.864; in the experiment with FG-4592 (0.8 µM), 1.05; in the experiment with FG-4592 (2.53 µM), 0.906; in the experiment with FG-4592 (8 µM), 0.894; with IU1-47 (0.08 µM), 0.916. The relative viability with IU1-47 (0.253 µM) stood at 0.919; with IU1-47 (0.8 µM), 1.03; with IU1-47 (2.53 µM) it was 0.826; in the experiment with IU1-47 (8 µM), 0.879.

Regarding COR-L23, the relative viability in the experiment with FG-4592 (0.08 µM) came out at 0.97; with FG-4592 (0.253 µM), 1.01; in the experiment with FG-4592 (0.8 µM), 1.11; with FG-4592 (2.53 µM) it was 0.902; in the experiment with FG-4592 (8 µM), 1.03; with IU1-47 (0.08 µM), 1.1. Besides, the relative viability stood at 1.08 with IU1-47 (0.253 µM), 1.15 with IU1-47 (0.8 µM), 0.938 with IU1-47 (2.53 µM) and 1.15 with IU1-47 (8 µM).

Take COR-L 105: the relative viability worked out at 0.921 with FG-4592 (0.08 µM); 0.938 in the experiment with FG-4592 (0.253 µM); 0.909 with FG-4592 (0.8 µM); 0.821 with FG-4592 (2.53 µM); 0.801 in the experiment with FG-4592 (8 µM); 0.95 in the experiment with IU1-47 (0.08 µM). Also, the relative viability with IU1-47 (0.253 µM) is 0.901; with IU1-47 (0.8 µM), 1.02; with IU1-47 (2.53 µM), 0.899; in the experiment with IU1-47 (8 µM), 0.91.

Consider Calu-6, for which the relative viability in the experiment with FG-4592 (0.08 µM) amounted to 0.945; with FG-4592 (0.253 µM), 0.995; with FG-4592 (0.8 µM), 1.03; with FG-4592 (2.53 µM), 0.975; in the experiment with FG-4592 (8 µM), 1.02; with IU1-47 (0.08 µM) it was 1. Besides, the relative viability is 1.06 in the experiment with IU1-47 (0.253 µM), 1.07 in the experiment with IU1-47 (0.8 µM), 1.04 in the experiment with IU1-47 (2.53 µM) and 1.02 in the experiment with IU1-47 (8 µM).

Regarding ChaGo-K-1, the relative viability with FG-4592 (0.08 µM) was found to be 0.97; with FG-4592 (0.253 µM), 0.975; with FG-4592 (0.8 µM), 0.935; with FG-4592 (2.53 µM), 0.967; in the experiment with FG-4592 (8 µM), 0.937; with IU1-47 (0.08 µM), 0.982. Besides, the relative viability is 0.997 with IU1-47 (0.253 µM), 1.04 with IU1-47 (0.8 µM), 0.811 in the experiment with IU1-47 (2.53 µM) and 0.821 with IU1-47 (8 µM).

On to EBC-1, for which the relative viability was determined as 1.07 in the experiment with FG-4592 (0.08 µM); 0.977 in the experiment with FG-4592 (0.253 µM); 0.95 in the experiment with FG-4592 (0.8 µM); 0.94 in the experiment with FG-4592 (2.53 µM); 0.953 in the experiment with FG-4592 (8 µM); 1.06 with IU1-47 (0.08 µM). The relative viability with IU1-47 (0.253 µM) worked out at 0.954; in the experiment with IU1-47 (0.8 µM), 1.05; in the experiment with IU1-47 (2.53 µM), 0.921; with IU1-47 (8 µM), 0.867.

Take EKVX: the relative viability came out at 1.03 with FG-4592 (0.08 µM); 0.809 in the experiment with FG-4592 (0.253 µM); 0.932 in the experiment with FG-4592 (0.8 µM); 0.941 with FG-4592 (2.53 µM); 0.992 with FG-4592 (8 µM); 1.23 with IU1-47 (0.08 µM). Further, the relative viability in the experiment with IU1-47 (0.253 µM) was determined as 1.12; with IU1-47 (0.8 µM), 1.03; in the experiment with IU1-47 (2.53 µM), 0.859; in the experiment with IU1-47 (8 µM) it was 0.943.

For EMC-BAC-2, the relative viability is 0.947 with FG-4592 (0.08 µM); 0.929 with FG-4592 (0.253 µM); 0.674 with FG-4592 (0.8 µM); 0.938 with FG-4592 (2.53 µM); 0.779 with FG-4592 (8 µM); 1.1 in the experiment with IU1-47 (0.08 µM). Further, the relative viability with IU1-47 (0.253 µM) was determined as 1.09; with IU1-47 (0.8 µM) it was 0.974; with IU1-47 (2.53 µM) it was 0.977; in the experiment with IU1-47 (8 µM) it was 0.974.
